# Results published in ChEMBL document CHEMBL1255475, “Mutant prevention concentrations of four carbapenems against gram-negative rods” (2010).
# Key:
# Acinetobacter baumannii [1] = assay: Antibacterial activity against Acinetobacter baumannii A867 assessed as mutant prevention concentration after overnight incubation; type: functional
# Acinetobacter baumannii [2] = assay: Antibacterial activity against Acinetobacter baumannii A865 assessed as mutant prevention concentration after overnight incubation; type: functional
# Pseudomonas aeruginosa [3] = assay: Antibacterial activity against Pseudomonas aeruginosa P373 incubated up to 7 days by agar dilution method; type: functional; details: P373, 168 h
# Acinetobacter baumannii [4] = assay: Antibacterial activity against Acinetobacter baumannii A898 incubated for 24 hrs by agar dilution method; details: A898, 24 h
# Acinetobacter baumannii [5] = assay: Antibacterial activity against Acinetobacter baumannii A867 incubated for 24 h by agar dilution method; details: A867, 24 h
# Acinetobacter baumannii [6] = assay: Antibacterial activity against Acinetobacter baumannii A894 incubated up to 7 days by agar dilution method; type: functional; details: A894, 168 h
# Acinetobacter baumannii [7] = assay: Antibacterial activity against Acinetobacter baumannii A892 incubated for 24 h by agar dilution method; details: A892, 24 h
# Acinetobacter baumannii [8] = assay: Antibacterial activity against Acinetobacter baumannii A884 incubated for 24 h by agar dilution method; details: A884, 24 h
# Pseudomonas aeruginosa [9] = assay: Antibacterial activity against Pseudomonas aeruginosa P352 incubated up to 7 days by agar dilution method; type: functional; details: P352, 168 h
# Acinetobacter baumannii [10] = assay: Antibacterial activity against Acinetobacter baumannii A908 incubated for 24 h by agar dilution method; details: A908, 24 h
# Acinetobacter baumannii [11] = assay: Antibacterial activity against Acinetobacter baumannii A910 incubated for 24 h by agar dilution method; details: A910, 24 h
# Acinetobacter baumannii [12] = assay: Antibacterial activity against Acinetobacter baumannii A891 incubated up to 7 days by agar dilution method; type: functional; details: A891, 168 h
# Pseudomonas aeruginosa [13] = assay: Antibacterial activity against Pseudomonas aeruginosa P363 incubated up to 7 days by agar dilution method; type: functional; details: P363, 168 h
# Pseudomonas aeruginosa [14] = assay: Antibacterial activity against Pseudomonas aeruginosa P369 incubated up to 7 days by agar dilution method; type: functional; details: P369, 168 h
# Pseudomonas aeruginosa [15] = assay: Antibacterial activity against Pseudomonas aeruginosa P319 incubated up to 7 days by agar dilution method; type: functional; details: P319, 168 h
# Pseudomonas aeruginosa [16] = assay: Antibacterial activity against Pseudomonas aeruginosa P353 incubated up to 7 days by agar dilution method; type: functional; details: P353, 168 h
# Pseudomonas aeruginosa [17] = assay: Antibacterial activity against Pseudomonas aeruginosa P322 incubated up to 7 days by agar dilution method; type: functional; details: P322, 168 h
# Pseudomonas aeruginosa [18] = assay: Antibacterial activity against Pseudomonas aeruginosa P341 incubated up to 7 days by agar dilution method; type: functional; details: P341, 168 h
# Pseudomonas aeruginosa [19] = assay: Antibacterial activity against Pseudomonas aeruginosa P332 incubated up to 7 days by agar dilution method; type: functional; details: P332, 168 h
# Pseudomonas aeruginosa [20] = assay: Antibacterial activity against Pseudomonas aeruginosa P326 incubated up to 7 days by agar dilution method; type: functional; details: P326, 168 h
# Acinetobacter baumannii [21] = assay: Antibacterial activity against Acinetobacter baumannii A896 incubated for 24 h by agar dilution method; details: A896, 24 h
smiles,measurement,setting,value
C[C@@H](O)[C@H]1C(=O)N2C(C(=O)O)=C(SCCNC=N)C[C@H]12 [IMIPENEM ANHYDROUS],MPC,Acinetobacter baumannii [1],64 µg/mL
same,MPC,Acinetobacter baumannii [2],32 µg/mL
C[C@@H](O)[C@H]1C(=O)N2C(C(=O)O)=C(S[C@@H]3CN[C@H](C(=O)N(C)C)C3)[C@H](C)[C@H]12 [MEROPENEM],MIC,Pseudomonas aeruginosa [3],0.5 µg/mL
same,MIC,Acinetobacter baumannii [4],2 µg/mL
same,MIC,Acinetobacter baumannii [5],8 µg/mL
same,MIC,Acinetobacter baumannii [6],1 µg/mL
same,MIC,Acinetobacter baumannii [7],8 µg/mL
same,MIC,Acinetobacter baumannii [8],4 µg/mL
same,MIC,Pseudomonas aeruginosa [9],2 µg/mL
same,MIC,Acinetobacter baumannii [10],1 µg/mL
same,MIC,Acinetobacter baumannii [11],1 µg/mL
same,MIC,Acinetobacter baumannii [12],1 µg/mL
same,MIC,Pseudomonas aeruginosa [13],0.5 µg/mL
same,MIC,Pseudomonas aeruginosa [14],0.5 µg/mL
same,MIC,Pseudomonas aeruginosa [15],2 µg/mL
same,MIC,Pseudomonas aeruginosa [16],2 µg/mL
same,MIC,Pseudomonas aeruginosa [17],2 µg/mL
same,MIC,Pseudomonas aeruginosa [18],0.5 µg/mL
same,MIC,Pseudomonas aeruginosa [19],1 µg/mL
same,MIC,Pseudomonas aeruginosa [20],8 µg/mL
same,MIC,Acinetobacter baumannii [21],1 µg/mL
